From PubChem BioAssay AID463204 (Broad Institute, 2010)
The source made the active and inactive calls.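 How the source made its calls: active means AC50 no more than ten times the top concentration tested, that is within one log above it; inconclusive means flat curve fit with activity between 30% and 70%, or invalid poor fit; inactive means AC50 beyond ten times the top tested dose.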

System: S. cerevisiae Mot1-301 ts growth rescue, BacTiter-Glo ATP luminescence
Test: growth rescue of Mot1-301 ts yeast, confirmation, SUMOylation pathway inhibitor project, whole organism, S. cerevisiae, Mot1-301 ts mutant, luminescence, dose retest (AID 463204);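 further: growth at restrictive 38.5 degrees C of Mot1-301 OY566 strain; actives raise luminescence by restoring growth of the ts mutant at high temperature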

SMILES	AC50
CSCCC(NC(=O)c1ccco1)C(=O)N1CCN(Cc2ccccc2)CC1 (stereo not given)	> 42 µM (inactive)
CCNC(=S)NNC(=O)c1ccc(=O)n(Cc2ccccc2)c1	> 42 µM (inactive)
CCCCc1ccc(NC(=S)NCc2cccs2)cc1	41.9 µM
CCOC(=O)CS(=O)(=O)c1ccc2ccccc2c1	> 42 µM (inactive)
Cc1nn(C)cc1CNC(=O)C1CCC(=O)N(Cc2cccc(C(F)(F)F)c2)C1 (stereo not given)	> 42 µM (inactive)
CCC(C)NC(=O)CSc1nnc(-c2cc(-c3ccc(C)cc3)nc3ccccc23)n1N (stereo not given)	> 42 µM (inactive)
CCN(CC)CCCNC(=O)C1c2ccccc2C(=O)N(CCOC)C1c1ccc(F)cc1 (stereo not given)	> 21 µM (inactive)
CS(=O)(=O)N(CC(=O)N1CCCC1)c1cccc(Cl)c1Cl	> 42 µM (inactive)
CCOC(=O)c1ccc(NC(=O)NCc2ccncc2)cc1	> 42 µM (inactive)
Cn1c(O)c(C(c2ccccn2)c2c(O)n(C)c(=S)n(C)c2=O)c(=O)n(C)c1=S	> 42 µM (inactive)
O=S(=O)(Nc1ccc(-c2nc3cccnc3s2)cc1)c1cc(F)ccc1F	> 21 µM (inactive)
C/C(=N/Nc1ccc(F)cc1)c1ccc(Cl)s1	> 42 µM (inactive)
CCCCC(O)(CCCC)C(=O)NN(C(=O)OC)c1ccc(C)cc1	> 42 µM (inactive)
CC(=O)c1ccc(Oc2cc(C)nc(N3CCOCC3)n2)cc1	> 42 µM (inactive)
CCCCn1c(/N=C/c2ccc3c(c2)OCO3)nc2ccccc21	> 42 µM (inactive)
CS(=O)(=O)N(CC(=O)NCCSCc1ccccc1)c1ccc2c(c1)OCO2	> 42 µM (inactive)
O=c1oc2cc(S(=O)(=O)NCCCO)ccc2c2ccc(S(=O)(=O)NCCCO)cc12	> 42 µM (inactive)
Cc1cc(C)n2nc(SCC(=O)NC3CCCC(C)C3C)nc2n1 (stereo not given)	> 42 µM (inactive)
CC(C(=O)Nc1ccccc1-c1ccccc1)N1CCN(Cc2ccccc2)CC1 (stereo not given)	> 42 µM (inactive)
O=C1C2CC=C(Cl)CC2C(=O)N1c1ncn[nH]1 (stereo not given)	> 42 µM (inactive)
C=CC[N+]1(CC#Cc2ccccc2)CCCC1	> 42 µM (inactive)
CCCNC(=O)Cn1nc(C)n2c(cc3cc(F)ccc32)c1=O	> 42 µM (inactive)
CCC(C)NCCCCOc1cc(C)cc(C(C)C)c1 (stereo not given)	> 42 µM (inactive)
CCOc1ccccc1C(=O)N(Cc1cccs1)C1CCS(=O)(=O)C1 (stereo not given)	> 42 µM (inactive)
CC1=CC2=NC(=O)/C(=C\c3cc(C)n(-c4ccccc4)c3C)C(=N)N2O1	> 42 µM (inactive)

SMILES	AC50
O=C(NCc1ccccc1Cl)c1ccc2c(c1)OCO2	30.4 µM
N=c1c2c(n(Cc3ccc(Cl)c(Cl)c3)c3c1CCC3)CCCC2	> 42 µM (inactive)
COc1cc([C@@H]2CC=C(C(=O)O)[C@H](c3ccccc3F)N2S(=O)(=O)c2ccc(C)cc2)cc(OC)c1OC	> 42 µM (inactive)
COc1ccc(-c2cc(C(F)(F)F)n3ncc(C(=O)O)c3n2)cc1OC	> 42 µM (inactive)
CCOc1ccc(C(=O)NNC2CC(=O)N(CCc3ccccc3)C2=O)cc1OC (stereo not given)	> 42 µM (inactive)
CC1CC(C)(C)N(C(=O)CN2C(=O)CCC2=O)c2ccccc21 (stereo not given)	> 42 µM (inactive)
Cc1cccc(NC(=O)CSCC(=O)N2CCCc3ccccc32)c1	> 42 µM (inactive)
COc1cccc(NC(=O)CN2CCN(c3ccccc3F)CC2)c1	39.1 µM
CCOC(=O)c1c(C)[nH]c(C(=O)COC(=O)c2ccncc2)c1C	> 42 µM (inactive)
COCCn1c(=NC(=O)c2ccc(S(=O)(=O)N3CCOCC3)cc2)sc2cc(S(N)(=O)=O)ccc21	> 42 µM (inactive)
COc1ccc(CCN2CC(C(=O)N(C)CC(=O)Nc3cccc(F)c3)CC2=O)cc1OC (stereo not given)	> 42 µM (inactive)
Cc1ccc(S(=O)(=O)NC2CCCCCCC2)cc1	18.1 µM
Cc1ccc(C)c(-n2nnnc2SCC(=O)Nc2c(C)n(C)n(-c3ccccc3)c2=O)c1	> 42 µM (inactive)
Cc1ccc(O)c(CNc2nc3ccccc3n2C)c1	> 42 µM (inactive)
O=C(c1ccc(CS(=O)(=O)c2ccccc2)o1)N1CCOCC1	> 42 µM (inactive)
S=c1[nH]ccn1-c1cccc(Cl)c1	> 42 µM (inactive)
O=C(COC(=O)c1cccc(Br)c1)Nc1ccc2[nH]c(=O)[nH]c2c1	> 42 µM (inactive)
Cc1ccc(SC[C@H](C)CN2CC[C@H](C)CCC2=O)cc1	> 42 µM (inactive)
CC1CC(c2ccccc2)NS(=O)(=O)O1 (stereo not given)	> 42 µM (inactive)
CC(=O)C1(c2ccccc2)CCNCC1	> 21 µM (inactive)
O=C(Nc1nnc(COc2ccc(F)cc2)s1)c1cccs1	> 42 µM (inactive)
Cc1ccc(N/N=C2/CCCNC2=O)cc1	> 42 µM (inactive)
CCCNc1nc2ccccc2c(=O)[nH]1	> 42 µM (inactive)
CN(CCOc1ccc(-c2ccn(S(=O)(=O)c3cccc4ccccc34)n2)cc1)c1ccccn1	> 42 µM (inactive)
COc1ccccc1CNC(=O)C(C)Sc1ccc(C)cc1 (stereo not given)	> 42 µM (inactive)

SMILES	AC50
Cc1ccc(NC(=O)CC2CS(=O)(=O)CC2CC(=O)Nc2ccc(C)c(C)c2)cc1C (stereo not given)	> 42 µM (inactive)
CC1CCN(CCCOc2ccc(OCc3ccccc3)cc2)CC1	> 42 µM (inactive)
Cc1ccccc1-n1ncc2c([N+](=O)[O-])cc([N+](=O)[O-])cc21	5.35 µM
O=C(O)CCC(=O)N1N=C(c2c(-c3ccccc3)c3cc(Cl)ccc3[nH]c2=O)CC1c1ccco1 (stereo not given)	> 42 µM (inactive)
Cc1nc2ccccc2c2ncccc12	> 42 µM (inactive)
Nc1nc2ccccc2cc1-c1cccs1	> 42 µM (inactive)
O=C(CN1CCN(C(=O)c2ccccc2)CC1)Nc1ncc(Br)cc1Br	> 42 µM (inactive)
CCCC(=O)N(CCN1CCOCC1)c1nc2ccc(OCC)cc2s1	> 42 µM (inactive)
CCn1c(SC(=O)NC2CCCCC2)nnc1-c1cccs1	11.6 µM
CC(C)(C)c1cc(NCCCn2ccnc2)n2ncc(-c3ccc(Cl)cc3)c2n1	5.57 µM
CC(OC(=O)c1cc(S(=O)(=O)N2CCOCC2)ccc1F)C(=O)NCc1ccc2c(c1)OCO2 (stereo not given)	> 42 µM (inactive)
CCCCC(O)(c1ccc(F)cc1)C(CN1CCOCC1)c1ccc(Cl)cc1 (stereo not given)	5.49 µM
CCOC(=O)c1cnc2oc3ccccc3n2c1=O	> 42 µM (inactive)
COc1ccc(/C=N/NC(=O)CCC(=O)Nc2ccccc2)cc1OC	> 42 µM (inactive)
O=C(C1CCN(C2CC(=O)N(c3cccc(Cl)c3)C2=O)CC1)N1CCCC1 (stereo not given)	7.84 µM
O=C(CCS(=O)(=O)c1ccc(Br)s1)NCc1ccccc1	> 42 µM (inactive)
Cc1cnc(NC(=O)CSc2nc3ccccc3s2)s1	> 42 µM (inactive)
CC1(C)NC(=O)N(CC(=O)O)C1=O	> 42 µM (inactive)
Cc1cccc(OCC(O)CN2C(C)(C)CC(O)CC2(C)C)c1 (stereo not given)	> 42 µM (inactive)
CCS(=O)c1ccccc1C(=O)O (stereo not given)	> 42 µM (inactive)
CC(N=C(NC#N)Nc1ccncc1)C(C)(C)C (stereo not given)	> 42 µM (inactive)
CCOC(=O)COc1nc(-c2ccc(C)cc2)cc(-c2ccco2)c1C#N	> 42 µM (inactive)
CN(CC(=O)Nc1ccccc1Sc1ccccc1)Cc1nc2ccccc2c(=O)[nH]1	> 42 µM (inactive)
c1ccc2c(C[C@@H]3CNCCN3CCCCC3CCCCC3)cccc2c1	15.6 µM
CCn1c(SCc2nc3ccccc3s2)nnc1-c1ccccc1	> 42 µM (inactive)
